Data on ten compounds can be found in ChEMBL document CHEMBL5380823, “Application and Study of ROCK Inhibitors in Pulmonary Fibrosis: Recent Developments and Future Perspectives” (J Med Chem, 2023).

Series [1] has as its target T1, Rho-associated protein kinase 2 (Homo sapiens, UniProt O75116). The series can be described thus: Inhibition of ROCK2 (unknown origin).
Series [2] is described as follows: Half life in BLM-induced Sprague-Dawley rat at 1 mg/kg, iv measured upto 24 hrs. The following applies: in vivo. Format: ADME, organism-based.
A short description of series [3]: Oral bioavailability in BLM-induced Sprague-Dawley rat at 2 mg/kg measured upto 24 hrs. It is filed as ADME, organism-based. The following applies: in vivo.
The target in series [4] is T1, Rho-associated protein kinase 2. Kind of series: Binding affinity to ROCK2 (unknown origin) assessed as inhibition constant.
Series [5] has as its target Rho-associated protein kinase 1 (Homo sapiens, UniProt Q13464). Kind of series: Binding affinity to ROCK1 (unknown origin) assessed as inhibition constant.
The nature of series [6]: Half life in iv dosed Wistar rat at 0.5 mg/kg. Format: ADME, organism-based. The following applies: in vivo.
Series [7] in a line: Oral bioavailability in Wistar rat at 1 mg/kg. It is filed as ADME, organism-based. Conditions: in vivo.

SMILES strings stand for the structures.

Broadly, the IC50 is the concentration at which inhibition is half-maximal. Read a low IC50 as greater potency in that assay. In general, half-life refers to the time in which the quantity being followed falls by half. High values mean slow decline, low ones rapid decline. By bioavailability is commonly meant the share of a dose that reaches the circulation, judged against a reference dose that is usually intravenous. A high value points to much systemic uptake. A word on the Ki: it is the dissociation constant of the complex between target and ligand, obtained from inhibition or displacement.

T1 sequence (O75116 whole entry): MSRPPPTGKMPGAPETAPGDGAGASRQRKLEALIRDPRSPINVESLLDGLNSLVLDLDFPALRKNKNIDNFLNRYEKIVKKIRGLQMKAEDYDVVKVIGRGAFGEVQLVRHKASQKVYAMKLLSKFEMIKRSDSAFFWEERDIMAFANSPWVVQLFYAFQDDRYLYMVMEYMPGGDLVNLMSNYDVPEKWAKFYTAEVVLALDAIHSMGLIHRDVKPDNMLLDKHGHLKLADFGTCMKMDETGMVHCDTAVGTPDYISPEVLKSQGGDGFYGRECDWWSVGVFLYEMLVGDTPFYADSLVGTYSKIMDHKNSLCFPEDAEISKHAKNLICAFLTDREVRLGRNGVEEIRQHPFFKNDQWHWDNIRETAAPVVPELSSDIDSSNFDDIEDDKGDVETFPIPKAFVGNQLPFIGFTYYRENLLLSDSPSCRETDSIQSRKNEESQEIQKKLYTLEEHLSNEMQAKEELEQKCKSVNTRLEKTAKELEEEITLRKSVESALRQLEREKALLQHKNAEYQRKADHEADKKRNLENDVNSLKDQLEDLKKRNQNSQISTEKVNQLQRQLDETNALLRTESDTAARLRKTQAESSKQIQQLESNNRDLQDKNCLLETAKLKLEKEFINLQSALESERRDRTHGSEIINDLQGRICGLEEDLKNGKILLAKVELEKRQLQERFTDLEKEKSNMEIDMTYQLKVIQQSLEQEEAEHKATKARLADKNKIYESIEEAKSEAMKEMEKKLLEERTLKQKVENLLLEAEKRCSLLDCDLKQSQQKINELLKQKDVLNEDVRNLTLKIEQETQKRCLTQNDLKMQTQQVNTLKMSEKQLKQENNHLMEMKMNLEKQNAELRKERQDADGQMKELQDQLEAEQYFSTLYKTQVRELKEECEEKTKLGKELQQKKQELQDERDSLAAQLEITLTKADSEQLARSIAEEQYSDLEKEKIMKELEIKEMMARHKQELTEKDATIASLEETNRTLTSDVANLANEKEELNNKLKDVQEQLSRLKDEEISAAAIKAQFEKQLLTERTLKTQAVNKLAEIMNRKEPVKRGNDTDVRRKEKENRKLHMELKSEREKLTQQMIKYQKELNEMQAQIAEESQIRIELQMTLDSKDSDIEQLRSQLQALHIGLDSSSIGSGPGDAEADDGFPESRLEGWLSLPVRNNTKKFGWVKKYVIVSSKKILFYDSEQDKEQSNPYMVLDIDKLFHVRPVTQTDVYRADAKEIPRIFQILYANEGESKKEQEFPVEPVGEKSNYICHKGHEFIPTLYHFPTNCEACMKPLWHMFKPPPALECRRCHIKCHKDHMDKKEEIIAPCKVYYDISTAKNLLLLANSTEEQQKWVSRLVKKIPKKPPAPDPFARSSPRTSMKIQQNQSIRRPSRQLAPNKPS
Chain of Rho-associated protein kinase 1 (Q13464 whole entry): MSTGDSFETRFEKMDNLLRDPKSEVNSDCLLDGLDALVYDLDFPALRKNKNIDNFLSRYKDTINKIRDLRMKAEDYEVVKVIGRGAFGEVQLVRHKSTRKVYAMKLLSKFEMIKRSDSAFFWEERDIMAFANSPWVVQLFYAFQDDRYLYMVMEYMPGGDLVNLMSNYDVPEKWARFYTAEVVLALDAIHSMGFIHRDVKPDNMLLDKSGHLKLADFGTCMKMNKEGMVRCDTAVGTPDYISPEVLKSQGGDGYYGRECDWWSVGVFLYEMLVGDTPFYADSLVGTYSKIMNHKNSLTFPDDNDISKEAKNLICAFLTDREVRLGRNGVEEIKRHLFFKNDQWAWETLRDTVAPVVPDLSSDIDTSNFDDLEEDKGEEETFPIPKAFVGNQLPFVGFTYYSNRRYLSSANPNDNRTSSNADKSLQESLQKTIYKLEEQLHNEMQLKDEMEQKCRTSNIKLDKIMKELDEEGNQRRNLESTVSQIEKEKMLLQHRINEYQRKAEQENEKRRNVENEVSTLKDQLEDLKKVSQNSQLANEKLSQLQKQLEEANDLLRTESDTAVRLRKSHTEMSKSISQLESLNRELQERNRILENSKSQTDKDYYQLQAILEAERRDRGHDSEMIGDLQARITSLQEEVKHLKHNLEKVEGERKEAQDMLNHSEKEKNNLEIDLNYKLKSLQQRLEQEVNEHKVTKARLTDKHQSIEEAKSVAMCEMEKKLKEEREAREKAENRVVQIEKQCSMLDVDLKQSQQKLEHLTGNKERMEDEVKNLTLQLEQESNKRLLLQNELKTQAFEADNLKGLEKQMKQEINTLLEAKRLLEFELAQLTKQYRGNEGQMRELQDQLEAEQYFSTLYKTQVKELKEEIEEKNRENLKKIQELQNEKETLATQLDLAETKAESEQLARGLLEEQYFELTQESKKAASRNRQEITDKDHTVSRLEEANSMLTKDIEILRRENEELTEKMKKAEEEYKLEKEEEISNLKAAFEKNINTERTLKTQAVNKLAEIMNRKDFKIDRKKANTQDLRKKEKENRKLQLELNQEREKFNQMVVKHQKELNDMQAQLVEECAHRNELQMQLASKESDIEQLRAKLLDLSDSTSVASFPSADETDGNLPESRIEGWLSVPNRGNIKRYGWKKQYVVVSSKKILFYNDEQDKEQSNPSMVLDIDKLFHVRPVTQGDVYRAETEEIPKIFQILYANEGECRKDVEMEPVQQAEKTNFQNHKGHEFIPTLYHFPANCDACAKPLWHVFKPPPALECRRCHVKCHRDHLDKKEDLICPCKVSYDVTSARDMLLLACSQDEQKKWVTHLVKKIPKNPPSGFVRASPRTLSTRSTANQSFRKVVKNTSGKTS

`Cc1c(C(=O)N[C@H]2C[C@]3(C2)C[C@H](c2n[nH]c(=O)c4ccccc42)C3)cnn1-c1ccccc1` (stereo partly drawn): inhibition in series [1] was half-maximal at 0.2 nM (IC50). `COc1cccc(C(CO)NC(=O)c2cccc(-c3ccc4[nH]ncc4c3)c2)c1` (stereo not drawn) gave a half-life in series [2] of 2.9 h. Moreover, in series [3], the bioavailability stood at 45%. As for `COc1cccc(Cn2cnn(-c3ccc(-c4cn[nH]c4)cc3)c2=O)c1`, the IC50 in series [1] is less than 5 nM. Still for that read-out and setting: the figure for `COc1cccc(CN2C(=O)N(c3ccc(-c4cn[nH]c4)c(OC)c3)CC23CC3)c1` is less than 3 nM.

In the case of `c1cc(Oc2ccc3c(c2)CNCC3)c2c(-c3ccncc3)c[nH]c2c1`, the Ki in series [4] and in series [5] was less than 3 nM in each case. In the case of `NC(=O)c1ccccc1O[C@H]1C[C@]2(C1)C[C@H](N1C(=O)NC(c3ccccc3Cl)C1=O)C2` (stereo partly drawn), the IC50 in series [1] came to 2 nM. Same read-out and setting: in the case of `COc1cccc(CN2CCN(c3ccc4c(c3)CCc3n[nH]cc3-4)C2=O)c1` it was less than 10 nM. Turning to `Cc1c[nH]c2nccc(Oc3ccc(Nc4cc(Cl)nc(N)n4)cc3F)c12`, the half-life in series [6] is 1.2 h. For the same compound, the bioavailability in series [7] amounted to 48%. With `NC[C@@H](C(=O)Nc1ccc2cnsc2c1)c1ccc(CO)cc1`, it took 1.45 nM to reach half-maximal inhibition in series [1] (IC50).

Consider `COc1cc(-c2cc(C)cc(C)n2)sc1C(=O)NCC(O)CO` (stereo not drawn), for which, in series [1], the IC50 stood at 14 nM.
